Source: PMC11109052, “Metabolism characterization and toxicity of N-hydap, a marine candidate drug for lung cancer therapy by LC–MS method” (Natural Products and Bioprospecting, 2024)

Columns and labels:
UGT1A6 = assay: DME activity ex vivo in MLMs and MKMs: UGT1A6 (Sero-G from Sero); design: species or system mice; key to UGT1A6 Enzymatic activity: ↑: up-regulation; ↓: down-regulation; –: no change
Method: (§1) Mice were randomly divided into four groups, with eight animals in each group. The mice received oral pretreatment with N-hydap for 7 days at doses of 2, 5, and 10 mg/kg/day, which were considered as the low dose, medium dose, and high dose, respectively. Correspondingly, the control group received PBS. On the 8th day, the liver and kidneys were removed, and organs from eight mice per group were combined to prepare MLMs and MKMs using the detailed procedures above. Subsequently, we determined the activity of CYP and UGT enzymes by specific substrate metabolized with MLMs (0.5 mg/mL) and MKMs (0.2 mg/mL) in vitro. Specifically, the following selective substrates were used for the respective enzymes: PH (1 μM) for CYP1A2, DIC (1 μM) for CYP2C9, MP (90 μM) for CYP2C19, DM (1 μM) for CYP2D6, CZX (10 μM) for CYP2E1, Tes (1 μM) for CYP3A4, SN38 (1 μM) for UGT1A1, CACD (100 μM) for UGT1A3, Sero (20 μM) for UGT1A6, and Prop (1 μM) for UGT1A9. All substrates were dissolved in methanol or DMSO. The incubation procedure was carried out as mentioned above, and the reaction was terminated with VER (20 ng/mL) in ESI+ mode and CLP (200 ng/mL) in ESI− mode. In the ex vivo experiments, the activity of enzymes was measured by quantifying the production of various metabolites (nM/mg protein/min). The metabolites and their corresponding enzymes are as follows: APAP from PH, 4-OH-DIC from DIC, 4-OH-MP from MP, DXO from DM, 6-OH-CZX from CZX, 6-OH-Tes from Tes, SN38-G from SN38, CACD-G from CACD, Sero-G from Sero, Prop-G from Prop. The measurements were performed using multiple reaction monitoring (MRM) transitions, which are specific mass spectrometry transitions used for quantification. The optimized parameters for each metabolite, such as declustering potential and collision energy, were described in Supplementary Table 1. All experiments were conducted in triplicate, to ensure accuracy and reproducibility.

MKMs = assay: Kinetics of N-hydap glucuronidation in MKMs; assay type: in vitro ADME, mouse; conditions: MKM
Method: In this study, the rats were executed by drawing blood from the abdominal aorta and mice were sacrificed with cervical dislocation before the liver and kidneys were excised. The liver and kidneys were removed, and washed with chilled cleansing solution (contains 8 mM KH2PO4, 5.6 mM EDTA·K2·2H2O, 1 mM DTT and 229.6 μM PMSF), homogenized in a tissue homogenate buffer with a pH of 7.4, (consisting of […], 8 mM K2HPO4, 250 mM sucrose, 1 mM EDTA·K2·2H2O and 229.6 μM PMSF). Subsequently, the homogenate was centrifuged at 10,400 rpm at 4 °C for 15 min, and the supernatant was then centrifuged at 35,000 rpm at 4 °C for 60 min. A 250 mM sucrose buffer was added to the pellet to reconstitute and the resuspension was stored at − 80 °C until use. Microsome protein concentrations were measured by Omni-Easy™ Instant BCA Protein Assay Kit.
Various microsomes including HLMs, HKMs, HIMs, RLMs, RKMs, MLMs and MKMs were involved in CYP and UGT reactions of N-hydap. […]
The substrate concentrations used for HLMs were 0.05, 0.5, 2, 2.5, 5, 10, 25, 50, and 100 μM. […] The rates of N-hydap-G by enzymes were expressed as nmol/mg/min, representing the amount of metabolites formed per minute per milligram of protein. Kinetic parameters were determined by analyzing the Eadie–Hofstee plots. […]

Ugt1a9 = assay: DME activity ex vivo in MLMs and MKMs: UGT1A9 (Prop-G from Prop); design: species or system mice; key to UGT1A9 Enzymatic activity: ↑: up-regulation; ↓: down-regulation; –: no change
Method: as §1

CYP3A4 = assay: Western blot protein level after 7 days gavage: CYP3A4; assay type: in vivo; conditions: mice, p.o. 7 days; liver and kidney (either tissue)
Method: Mice were randomly divided into four groups, with eight animals in each group. The mice received oral pretreatment with N-hydap for 7 days at doses of 2, 5, and 10 mg/kg/day, which were considered as the low dose, medium dose, and high dose, respectively. Correspondingly, the control group received PBS. On the 8th day, the liver and kidneys were removed, and organs from eight mice per group were combined to prepare MLMs and MKMs using the detailed procedures above. Subsequently, we determined the activity of CYP and UGT enzymes by specific substrate metabolized with MLMs (0.5 mg/mL) and MKMs (0.2 mg/mL) in vitro. […] In the ex vivo experiments, the activity of enzymes was measured by quantifying the production of various metabolites (nM/mg protein/min). […] The measurements were performed using multiple reaction monitoring (MRM) transitions, which are specific mass spectrometry transitions used for quantification. […]
After 7 days of N-hydap gavage, the liver and kidney tissues were lysed using RIPA buffer supplemented with a 1% protease inhibitor cocktail. […] Western blot signals were detected using an ECL chemiluminescence detection agent. The relative intensity of each protein band was scanned and quantified using Image J software.

[1] = liver microsomes of mice pretreated 7 days p.o.

## CC1CCC2C(C=CC(C)C2C(=O)c2c(O)c(C3(O)CCC(O)C4OC43)cn(O)c2=O)C1 (centres unmarked) [N-hydap, N-Hydroxyapiosporamide]
UGT1A6; Kidney
  UGT1A6 Enzymatic activity: –
UGT1A6; Liver
  UGT1A6 Enzymatic activity: ↓
UGT1A6; [1]
  reduction of formation rate of Sero-G vs control: 72%
MKMs
  Km: 405 µM
Ugt1a9; Kidney
  UGT1A9 Enzymatic activity: ↑
Ugt1a9; Liver
  UGT1A9 Enzymatic activity: ↓
Ugt1a9; [1]
  reduction of formation rate of Prop-G vs control: 47%
CYP3A4
  protein levels of CYP3A4: no significant changes
